Assay results published in patent US7687517B2, “3,9-Diazabicyclo [3.3.1] nonane derivatives and their use as monoamine neurotransmitter re-uptake inhibitors” (Neurosearch A/S, priority 2006, dated 2010).
Counter-ions that a name gives are not always drawn. Like-named read-outs stand apart in the source and are kept apart here.

Legend:
[1] = biological target: T1, reuptake of dopamine (DA) in synaptosomes (Rattus norvegicus, UniProt P23977); experiment: Inhibition of dopamine reuptake in synaptosomes; assay type: biochemical; conditions: 3H-DA, read-out: DA-uptake IC50
T1 construct: in synaptosomes as described in WO 97/16451; from tissue

[2] = biological target: T2, reuptake of serotonine (5-HT) in synaptosomes (Rattus norvegicus, UniProt P31652); experiment: Inhibition of serotonin reuptake in synaptosomes; assay type: biochemical
T2 construct: in synaptosomes as described in WO 97/16451; from tissue
Procedure: A number of compounds were tested for their ability to inhibit the reuptake of the monoamine neurotransmitters dopamine (DA) noradrenaline (NA) and serotonine (5-HT) in synaptosomes as described in WO 97/16451.
The test values are given as IC50 (the concentration (μM) of the test substance which inhibits the specific binding of ^3H-DA, ^3H-NA, or ^3H-5-HT by 50%).

[3] = biological target: T3, reuptake of noradrenaline (NA) in synaptosomes (Rattus norvegicus, UniProt Q63380); experiment: Inhibition of noradrenaline reuptake in synaptosomes; assay type: biochemical
T3 construct: in synaptosomes as described in WO 97/16451; from tissue

[4] = synaptosomes, 3H-NA, read-out: NA-uptake IC50

T3 sequence (Q63380 1-617): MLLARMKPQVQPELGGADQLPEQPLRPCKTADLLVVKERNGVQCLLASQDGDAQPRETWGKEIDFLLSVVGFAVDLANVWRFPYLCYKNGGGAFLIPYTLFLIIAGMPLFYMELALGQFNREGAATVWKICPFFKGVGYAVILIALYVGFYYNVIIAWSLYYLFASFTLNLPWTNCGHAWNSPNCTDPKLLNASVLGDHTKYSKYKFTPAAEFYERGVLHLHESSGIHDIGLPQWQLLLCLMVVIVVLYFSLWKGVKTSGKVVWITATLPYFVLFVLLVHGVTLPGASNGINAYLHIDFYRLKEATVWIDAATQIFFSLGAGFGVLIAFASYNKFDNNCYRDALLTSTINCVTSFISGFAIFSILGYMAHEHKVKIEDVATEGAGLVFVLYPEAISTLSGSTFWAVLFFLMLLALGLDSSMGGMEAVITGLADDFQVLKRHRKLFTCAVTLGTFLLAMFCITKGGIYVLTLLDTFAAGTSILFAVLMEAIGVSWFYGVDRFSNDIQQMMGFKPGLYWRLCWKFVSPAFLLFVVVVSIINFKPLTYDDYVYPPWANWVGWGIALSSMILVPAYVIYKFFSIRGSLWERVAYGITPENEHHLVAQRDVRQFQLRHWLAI
T2 sequence (P31652 whole entry): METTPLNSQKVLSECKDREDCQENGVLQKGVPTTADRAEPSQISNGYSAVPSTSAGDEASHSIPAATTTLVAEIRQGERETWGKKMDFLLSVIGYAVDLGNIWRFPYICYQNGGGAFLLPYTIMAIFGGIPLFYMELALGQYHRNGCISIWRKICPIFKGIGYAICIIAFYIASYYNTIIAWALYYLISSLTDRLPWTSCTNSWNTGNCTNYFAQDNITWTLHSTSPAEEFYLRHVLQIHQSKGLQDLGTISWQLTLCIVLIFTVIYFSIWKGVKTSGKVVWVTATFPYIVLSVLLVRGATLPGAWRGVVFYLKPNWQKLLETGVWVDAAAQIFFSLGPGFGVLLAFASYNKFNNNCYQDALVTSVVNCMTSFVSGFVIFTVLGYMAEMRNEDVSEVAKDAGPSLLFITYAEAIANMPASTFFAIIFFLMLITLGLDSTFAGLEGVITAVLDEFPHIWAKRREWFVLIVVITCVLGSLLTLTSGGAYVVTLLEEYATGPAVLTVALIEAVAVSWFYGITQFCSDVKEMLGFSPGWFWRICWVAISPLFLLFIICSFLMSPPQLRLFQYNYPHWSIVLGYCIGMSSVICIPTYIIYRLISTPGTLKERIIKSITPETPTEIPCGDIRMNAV
T1 sequence (P23977 whole entry): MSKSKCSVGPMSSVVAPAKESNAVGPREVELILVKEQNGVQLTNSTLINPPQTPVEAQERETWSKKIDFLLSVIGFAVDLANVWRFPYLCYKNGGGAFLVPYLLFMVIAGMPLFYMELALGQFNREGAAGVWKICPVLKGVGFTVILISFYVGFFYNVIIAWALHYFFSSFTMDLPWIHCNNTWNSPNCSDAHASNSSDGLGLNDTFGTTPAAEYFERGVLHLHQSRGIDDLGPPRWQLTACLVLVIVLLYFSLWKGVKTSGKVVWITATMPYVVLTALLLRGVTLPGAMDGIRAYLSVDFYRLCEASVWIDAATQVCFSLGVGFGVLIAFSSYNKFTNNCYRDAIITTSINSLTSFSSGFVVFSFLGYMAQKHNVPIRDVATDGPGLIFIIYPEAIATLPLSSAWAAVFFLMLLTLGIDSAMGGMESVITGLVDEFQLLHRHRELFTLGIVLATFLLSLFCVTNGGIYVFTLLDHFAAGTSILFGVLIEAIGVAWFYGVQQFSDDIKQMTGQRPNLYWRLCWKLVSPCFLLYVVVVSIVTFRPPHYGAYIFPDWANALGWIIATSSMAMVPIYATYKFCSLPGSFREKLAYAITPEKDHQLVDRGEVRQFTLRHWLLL

Row | SMILES | IC50 [1] [nM] | IC50 [2] [nM] | IC50 [3, 4] [nM] | melting point [°C] | IC50 [3] [nM]
1 | O=[N+]([O-])c1ccc2nc(N3CC4CCCC(C3)N4)ccc2c1 [1st compound of Method B, 3-(6-Nitro-quinolin-2-yl)-3,9-diaza-bicyclo[3.3.1]nonane] | > 1000 | 0.9 | 1200 |  | 
2 | CN1C2CCCC1CN(c1ccc3ccccc3n1)C2 (as salt: fumaric acid salt) [2nd compound of Method A, 9-Methyl-3-quinolin-2-yl-3,9-diaza-bicyclo[3.3.1]nonane] |  |  |  | 170.2 to 176.9 | 
3 | COc1ccc2nc(N3CC4CCCC(C3)N4C)ccc2c1 [5th compound of Method A, 3-(6-Methoxy-quinolin-2-yl)-9-methyl-3,9-diaza-bicyclo[3.3.1]nonane] | 1800 | 26 |  |  | 100
4 | CN1C2CCCC1CN(c1ccc3ccccc3n1)C2 [2nd compound of Method A, 9-Methyl-3-quinolin-2-yl-3,9-diaza-bicyclo[3.3.1]nonane] | > 1000 | 7.7 | 140 |  | 
